Assay results from ChEMBL document CHEMBL1671750, “Emergence and molecular characterization of extensively drug-resistant Mycobacterium tuberculosis clinical isolates from the Delhi Region in India” (2010).
In brackets after ≈: the same amount, converted by molar mass. Activity calls are given as the source filed them. The rule behind the calls is not given here.

What was measured:
[1] = test system: Mycobacterium tuberculosis; assay: Antimycobacterial activity against extensively drug-resistant Mycobacterium tuberculosis H37Rv by CLSI method; type: functional
[2] = test system: Mycobacterium tuberculosis; assay: Antimycobacterial activity against extensively drug-resistant Mycobacterium tuberculosis isolate 2911 horboring rpoB D516V, katG S315T/R463L, gyrA D94G/S95T/R128S/Y129C, rrs A1401G by CLSI method; type: functional
[3] = test system: Mycobacterium tuberculosis; assay: Antimycobacterial activity against extensively drug-resistant Mycobacterium tuberculosis isolate 761 horboring rpoB S531L/Q510P, katG S315T/R463L, gyrA D94N/S95T, rrs G1484T by CLSI method; type: functional
[4] = test system: Mycobacterium tuberculosis; assay: Antimycobacterial activity against extensively drug-resistant Mycobacterium tuberculosis isolate 625 horboring rpoB S531L/G566R/I569L, katG S315T/R463L, gyrA A90V/S95T, rrs A1401G by CLSI method; type: functional
[5] = test system: Mycobacterium tuberculosis; assay: Antimycobacterial activity against extensively drug-resistant Mycobacterium tuberculosis isolate 2474 horboring rpoB H526Y, katG D329A/R463L, gyrA D94G/S95T, rrs A1401G by CLSI method; type: functional
[6] = test system: Mycobacterium tuberculosis; assay: Antimycobacterial activity against extensively drug-resistant Mycobacterium tuberculosis isolate 2301 horboring rpoB S531L, katG R463L/E217G, gyrA D94N/S95T, rrs A1401G by CLSI method; type: functional
[7] = test system: Mycobacterium tuberculosis; assay: Antimycobacterial activity against extensively drug-resistant Mycobacterium tuberculosis isolate 2301 obtained from sputum of patient at 2 ug/ml by Bactec MGIT960 modified proportion method; type: functional, organism-based
[8] = test system: Mycobacterium tuberculosis; assay: Antimycobacterial activity against extensively drug-resistant Mycobacterium tuberculosis isolate 2911 obtained from sputum of patient at 2 ug/ml by Bactec MGIT960 modified proportion method; type: functional, organism-based
[9] = test system: Mycobacterium tuberculosis; assay: Antimycobacterial activity against extensively drug-resistant Mycobacterium tuberculosis isolate 625 obtained from sputum of patient at 2 ug/ml by Bactec MGIT960 modified proportion method; type: functional, organism-based
[10] = test system: Mycobacterium tuberculosis; assay: Antimycobacterial activity against extensively drug-resistant Mycobacterium tuberculosis isolate 2403 obtained from sputum of patient at 2 ug/ml by Bactec MGIT960 modified proportion method; type: functional, organism-based
[11] = test system: Mycobacterium tuberculosis; assay: Antimycobacterial activity against extensively drug-resistant Mycobacterium tuberculosis isolate 761 obtained from pus of patient at 2 ug/ml by Bactec MGIT960 modified proportion method; type: functional, organism-based
[12] = test system: Mycobacterium tuberculosis; assay: Antimycobacterial activity against extensively drug-resistant Mycobacterium tuberculosis isolate 2474 obtained from sputum of patient at 2 ug/ml by Bactec MGIT960 modified proportion method; type: functional, organism-based
[13] = test system: Mycobacterium tuberculosis; assay: Antimycobacterial activity against extensively drug-resistant Mycobacterium tuberculosis isolate 625 obtained from sputum of patient at 4 ug/ml by Bactec MGIT960 modified proportion method; type: functional, organism-based
[14] = test system: Mycobacterium tuberculosis; assay: Antimycobacterial activity against extensively drug-resistant Mycobacterium tuberculosis isolate 761 obtained from pus of patient at 4 ug/ml by Bactec MGIT960 modified proportion method; type: functional, organism-based
[15] = test system: Mycobacterium tuberculosis; assay: Antimycobacterial activity against extensively drug-resistant Mycobacterium tuberculosis isolate 2403 obtained from sputum of patient at 4 ug/ml by Bactec MGIT960 modified proportion method; type: functional, organism-based
[16] = test system: Mycobacterium tuberculosis; assay: Antimycobacterial activity against extensively drug-resistant Mycobacterium tuberculosis isolate 2301 obtained from sputum of patient at 4 ug/ml by Bactec MGIT960 modified proportion method; type: functional, organism-based
[17] = test system: Mycobacterium tuberculosis; assay: Antimycobacterial activity against extensively drug-resistant Mycobacterium tuberculosis isolate 2911 obtained from sputum of patient at 4 ug/ml by Bactec MGIT960 modified proportion method; type: functional, organism-based
[18] = test system: Mycobacterium tuberculosis; assay: Antimycobacterial activity against extensively drug-resistant Mycobacterium tuberculosis isolate 2474 obtained from sputum of patient at 4 ug/ml by Bactec MGIT960 modified proportion method; type: functional, organism-based
[19] = test system: Mycobacterium tuberculosis; assay: Antimycobacterial activity against extensively drug-resistant Mycobacterium tuberculosis isolate 2301 obtained from sputum of patient at 1 ug/ml by Bactec MGIT960 modified proportion method; type: functional, organism-based
[20] = test system: Mycobacterium tuberculosis; assay: Antimycobacterial activity against extensively drug-resistant Mycobacterium tuberculosis isolate 2403 obtained from sputum of patient at 1 ug/ml by Bactec MGIT960 modified proportion method; type: functional, organism-based
[21] = test system: Mycobacterium tuberculosis; assay: Antimycobacterial activity against extensively drug-resistant Mycobacterium tuberculosis isolate 625 obtained from sputum of patient at 1 ug/ml by Bactec MGIT960 modified proportion method; type: functional, organism-based
[22] = test system: Mycobacterium tuberculosis; assay: Antimycobacterial activity against extensively drug-resistant Mycobacterium tuberculosis isolate 2911 obtained from sputum of patient at 1 ug/ml by Bactec MGIT960 modified proportion method; type: functional, organism-based
[23] = test system: Mycobacterium tuberculosis; assay: Antimycobacterial activity against extensively drug-resistant Mycobacterium tuberculosis isolate 2474 obtained from sputum of patient at 1 ug/ml by Bactec MGIT960 modified proportion method; type: functional, organism-based
[24] = test system: Mycobacterium tuberculosis; assay: Antimycobacterial activity against extensively drug-resistant Mycobacterium tuberculosis isolate 761 obtained from pus of patient at 1 ug/ml by Bactec MGIT960 modified proportion method; type: functional, organism-based
[25] = test system: Mycobacterium tuberculosis; assay: Antimycobacterial activity against extensively drug-resistant Mycobacterium tuberculosis isolate 2301 obtained from sputum of patient at 5 ug/ml by Bactec MGIT960 modified proportion method; type: functional, organism-based
[26] = test system: Mycobacterium tuberculosis; assay: Antimycobacterial activity against extensively drug-resistant Mycobacterium tuberculosis isolate 2911 obtained from sputum of patient at 5 ug/ml by Bactec MGIT960 modified proportion method; type: functional, organism-based
[27] = test system: Mycobacterium tuberculosis; assay: Antimycobacterial activity against extensively drug-resistant Mycobacterium tuberculosis isolate 2474 obtained from sputum of patient at 5 ug/ml by Bactec MGIT960 modified proportion method; type: functional, organism-based
[28] = test system: Mycobacterium tuberculosis; assay: Antimycobacterial activity against extensively drug-resistant Mycobacterium tuberculosis isolate 761 obtained from pus of patient at 5 ug/ml by Bactec MGIT960 modified proportion method; type: functional, organism-based
[29] = test system: Mycobacterium tuberculosis; assay: Antimycobacterial activity against extensively drug-resistant Mycobacterium tuberculosis isolate 2403 obtained from sputum of patient at 5 ug/ml by Bactec MGIT960 modified proportion method; type: functional, organism-based
[30] = test system: Mycobacterium tuberculosis; assay: Antimycobacterial activity against extensively drug-resistant Mycobacterium tuberculosis isolate 2301 obtained from sputum of patient at 0.1 ug/ml by Bactec MGIT960 modified proportion method; type: functional, organism-based
[31] = test system: Mycobacterium tuberculosis; assay: Antimycobacterial activity against extensively drug-resistant Mycobacterium tuberculosis isolate 2403 obtained from sputum of patient at 0.1 ug/ml by Bactec MGIT960 modified proportion method; type: functional, organism-based
[32] = test system: Mycobacterium tuberculosis; assay: Antimycobacterial activity against extensively drug-resistant Mycobacterium tuberculosis isolate 625 obtained from sputum of patient at 0.1 ug/ml by Bactec MGIT960 modified proportion method; type: functional, organism-based
[33] = test system: Mycobacterium tuberculosis; assay: Antimycobacterial activity against extensively drug-resistant Mycobacterium tuberculosis isolate 2911 obtained from sputum of patient at 0.1 ug/ml by Bactec MGIT960 modified proportion method; type: functional, organism-based
[34] = test system: Mycobacterium tuberculosis; assay: Antimycobacterial activity against extensively drug-resistant Mycobacterium tuberculosis isolate 2474 obtained from sputum of patient at 0.1 ug/ml by Bactec MGIT960 modified proportion method; type: functional, organism-based
[35] = test system: Mycobacterium tuberculosis; assay: Antimycobacterial activity against extensively drug-resistant Mycobacterium tuberculosis isolate 761 obtained from pus of patient at 0.1 ug/ml by Bactec MGIT960 modified proportion method; type: functional, organism-based

Row | Structure (SMILES) | MIC [1] [µg/mL] | MIC [2] [µg/mL] | MIC [3] [µg/mL] | MIC [4] [µg/mL] | MIC [5] [µg/mL] | MIC [6] [µg/mL] | further results
1 | N[C@@H]1CONC1=O [CYCLOSERINE] | 8 (≈ 78.4 µM) | 16 (≈ 157 µM) | >16 | 16 (≈ 157 µM) | 16 (≈ 157 µM) | 16 (≈ 157 µM) | –
2 | C[C@@H]1CN(c2c(F)c(N)c3c(=O)c(C(=O)O)cn(C4CC4)c3c2F)C[C@H](C)N1 [SPARFLOXACIN] | 0.5 (≈ 1.27 µM) | >16 | 16 (≈ 40.8 µM) | 8 (≈ 20.4 µM) | 16 (≈ 40.8 µM) | 16 (≈ 40.8 µM) | –
3 | COc1c(N2C[C@@H]3CCCN[C@@H]3C2)c(F)cc2c(=O)c(C(=O)O)cn(C3CC3)c12 | – | – | – | – | – | – | Activity [7]: inactive; Activity [8]: inactive; Activity [9]: inactive; Activity [10]: inactive; Activity [11]: inactive
4 | CC1COc2c(N3CCN(C)CC3)c(F)cc3c(=O)c(C(=O)O)cn1c23 (stereo not drawn) [OFLOXACIN] | 0.5 (≈ 1.38 µM) | 8 (≈ 22.1 µM) | 16 (≈ 44.3 µM) | 16 (≈ 44.3 µM) | 8 (≈ 22.1 µM) | 8 (≈ 22.1 µM) | Activity [7]: inactive; Activity [8]: inactive; Activity [9]: inactive; Activity [10]: inactive; Activity [12]: inactive; Activity [11]: inactive
5 | CCc1cc(C(N)=S)ccn1 [ETHIONAMIDE] | 0.5 (≈ 3.01 µM) | 4 (≈ 24.1 µM) | 1 (≈ 6.02 µM) | 4 (≈ 24.1 µM) | >16 | 2 (≈ 12 µM) | –
6 | NC[C@H]1O[C@H](O[C@H]2[C@H](O)[C@@H](O[C@H]3O[C@H](CO)[C@@H](O)[C@H](N)[C@H]3O)[C@H](N)C[C@@H]2N)[C@H](O)[C@@H](O)[C@@H]1O [KANAMYCIN] | 2 (≈ 4.13 µM) | >16 | >16 | >16 | >16 | >16 | Activity [13]: inactive; Activity [14]: inactive; Activity [15]: inactive; Activity [16]: inactive; Activity [17]: inactive; Activity [18]: Active
7 | CO[C@H]1/C=C/O[C@@]2(C)Oc3c(C)c(O)c4c(O)c(c(/C=N/N5CCN(C)CC5)c(O)c4c3C2=O)NC(=O)/C(C)=C\C=C\[C@H](C)[C@H](O)[C@@H](C)[C@@H](O)[C@@H](C)[C@H](OC(C)=O)[C@@H]1C [RIFAMPIN] | 0.25 (≈ 0.304 µM) | 16 (≈ 19.4 µM) | >16 | >16 | >16 | >16 | Activity [19]: inactive; Activity [20]: inactive; Activity [21]: inactive; Activity [22]: inactive; Activity [23]: inactive; Activity [24]: inactive
8 | C[C@H]1COc2c(N3CCN(C)CC3)c(F)cc3c(=O)c(C(=O)O)cn1c23 | – | – | – | – | – | – | Activity [7]: inactive; Activity [8]: inactive; Activity [10]: inactive; Activity [11]: inactive
9 | CC[C@@H](CO)NCCN[C@@H](CC)CO [ETHAMBUTOL] | 1 (≈ 4.89 µM) | 4 (≈ 19.6 µM) | 8 (≈ 39.2 µM) | 4 (≈ 19.6 µM) | 4 (≈ 19.6 µM) | 2 (≈ 9.79 µM) | Activity [25]: inactive; Activity [26]: inactive; Activity [27]: inactive; Activity [28]: Active; Activity [29]: inactive
10 | CN[C@@H]1[C@H](O[C@H]2[C@H](O[C@H]3[C@H](O)[C@@H](O)[C@H](N=C(N)N)[C@@H](O)[C@@H]3N=C(N)N)O[C@@H](C)[C@]2(O)C=O)O[C@@H](CO)[C@H](O)[C@H]1O [STREPTOMYCIN] | 1 (≈ 1.72 µM) | >16 | 0.125 (≈ 0.215 µM) | 16 (≈ 27.5 µM) | >16 | 0.5 (≈ 0.86 µM) | Activity [19]: inactive; Activity [20]: inactive; Activity [22]: inactive; Activity [23]: inactive; Activity [24]: Active
11 | NNC(=O)c1ccncc1 [ISONIAZID] | 0.25 (≈ 1.82 µM) | 4 (≈ 29.2 µM) | 4 (≈ 29.2 µM) | >16 | 1 (≈ 7.29 µM) | 0.5 (≈ 3.65 µM) | Activity [30]: inactive; Activity [31]: inactive; Activity [32]: inactive; Activity [33]: inactive; Activity [34]: inactive; Activity [35]: inactive
12 | NCC[C@H](O)C(=O)N[C@@H]1C[C@H](N)[C@@H](O[C@H]2O[C@H](CN)[C@@H](O)[C@H](O)[C@H]2O)[C@H](O)[C@H]1O[C@H]1O[C@H](CO)[C@@H](O)[C@H](N)[C@H]1O [AMIKACIN] | 0.5 (≈ 0.854 µM) | >16 | 16 (≈ 27.3 µM) | >16 | >16 | >16 | Activity [19]: inactive; Activity [20]: inactive; Activity [22]: inactive; Activity [23]: inactive; Activity [24]: inactive
